Reference: patent US10711002B2, “Purine compounds and method for the treatment of cancer” (THE ROYAL INSTITUTION FOR THE ADVANCEMENT OF …, priority 2016, dated 2020)

Legend:
Assay in all cases: High-throughput kinase assay
Assay type in all cases: biochemical
AURKA (Aurora A) = molecular target: T1, AURKA (Aurora A) (Homo sapiens, UniProt O14965); conditions: for inhibition at 0.1 µM: 100 nM; for inhibition at 0.5 µM: 500 nM
T1 sequence (O14965 1-403): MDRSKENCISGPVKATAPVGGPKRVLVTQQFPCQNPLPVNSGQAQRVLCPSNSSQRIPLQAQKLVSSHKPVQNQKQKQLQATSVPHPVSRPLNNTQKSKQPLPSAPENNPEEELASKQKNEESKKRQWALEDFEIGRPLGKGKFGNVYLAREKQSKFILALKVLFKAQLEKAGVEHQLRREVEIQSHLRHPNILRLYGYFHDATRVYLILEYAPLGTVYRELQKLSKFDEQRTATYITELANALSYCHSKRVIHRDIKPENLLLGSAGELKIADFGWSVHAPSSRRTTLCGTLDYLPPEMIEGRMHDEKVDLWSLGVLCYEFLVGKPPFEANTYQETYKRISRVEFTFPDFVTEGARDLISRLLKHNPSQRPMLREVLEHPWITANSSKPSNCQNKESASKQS
Method: (§1) Screening of Compounds 1-4 against several kinases identified two prominent targets of these compounds as the Aurora A kinase and calcium dependent protein kinase C isoforms α, βI, βII and […] (Tables 1 to 3). IC50s for these two targets were obtained by plotting inhibition levels at 500 nM, 100 nM, 50 nM and 10 nM (FIG. 3). These kinases are directly involved in pathways controlling cell differentiation programs, metastasis signaling, as well as EMT and CSC programming and their overexpression was reported to predict decreased metastasis-free survival.

AURKB (Aurora B) = AURKB (Aurora B) (Homo sapiens, UniProt Q96GD4); conditions: read-out: Percent inhibition of kinase activity in vitro, AURKB (Aurora B); for inhibition at 0.1 µM: 100 nM; for inhibition at 0.5 µM: 500 nM
Method: as §1

AURKC (Aurora C) = molecular target: T2, AURKC (Aurora C) (Homo sapiens, UniProt Q9UQB9); conditions: read-out: Percent inhibition of kinase activity in vitro, AURKC (Aurora C); for inhibition at 0.1 µM: 100 nM; for inhibition at 0.5 µM: 500 nM
T2 sequence (Q9UQB9 1-309): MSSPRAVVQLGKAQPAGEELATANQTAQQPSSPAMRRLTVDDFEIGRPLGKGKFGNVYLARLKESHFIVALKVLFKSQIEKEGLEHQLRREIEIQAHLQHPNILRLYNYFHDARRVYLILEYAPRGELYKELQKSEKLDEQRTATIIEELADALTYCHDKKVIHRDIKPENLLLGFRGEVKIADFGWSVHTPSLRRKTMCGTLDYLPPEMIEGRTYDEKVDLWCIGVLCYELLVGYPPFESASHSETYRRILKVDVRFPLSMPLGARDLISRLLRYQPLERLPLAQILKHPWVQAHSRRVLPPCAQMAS
Method: as §1

EGFR (ErbB1) = EGFR (ErbB1) (Homo sapiens, UniProt P00533); conditions: read-out: Percent inhibition of kinase activity in vitro, EGFR (ErbB1); for inhibition at 0.1 µM: 100 nM; for inhibition at 0.5 µM: 500 nM
Method: as §1

ERBB2 (HER2) = ERBB2 (HER2) (Homo sapiens, UniProt P04626); conditions: 500 nM; read-out: Percent inhibition of kinase activity in vitro, ERBB2 (HER2)
Method: as §1

FGFR1 = FGFR1 (Homo sapiens, UniProt P11362); conditions: read-out: Percent inhibition of kinase activity in vitro, FGFR1; for inhibition at 0.1 µM: 100 nM; for inhibition at 0.5 µM: 500 nM
Method: as §1

FRAP1 (mTOR) = FRAP1 (mTOR) (Homo sapiens, UniProt P42345); conditions: read-out: Percent inhibition of kinase activity in vitro, FRAP1 (mTOR); for inhibition at 0.1 µM: 100 nM; for inhibition at 0.5 µM: 500 nM
Method: as §1

JAK2 = JAK2 (Homo sapiens, UniProt O60674); conditions: read-out: Percent inhibition of kinase activity in vitro, JAK2; for inhibition at 0.1 µM: 100 nM; for inhibition at 0.5 µM: 500 nM
Method: as §1

LCK = LCK (Homo sapiens, UniProt P06239); conditions: read-out: Percent inhibition of kinase activity in vitro, LCK; for inhibition at 0.1 µM: 100 nM; for inhibition at 0.5 µM: 500 nM
Method: as §1

PDGFRA (PDGFR alpha) = PDGFRA (PDGFR alpha) (Homo sapiens, UniProt P16234); conditions: read-out: Percent inhibition of kinase activity in vitro, PDGFRA (PDGFR alpha); for inhibition at 0.1 µM: 100 nM; for inhibition at 0.5 µM: 500 nM
Method: as §1

PRKCD (PKC delta) = PRKCD (PKC delta) (Homo sapiens, UniProt Q05655); conditions: 50 nM; read-out: Percent inhibition of kinase activity in vitro, PRKCD (PKC delta)
Method: as §1

PRKCQ (PKC theta) = PRKCQ (PKC theta) (Homo sapiens, UniProt Q04759); conditions: 50 nM; read-out: Percent inhibition of kinase activity in vitro, PRKCQ (PKC theta)
Method: as §1

SYK = SYK (Homo sapiens, UniProt P43405); conditions: read-out: Percent inhibition of kinase activity in vitro, SYK; for inhibition at 0.1 µM: 100 nM; for inhibition at 0.5 µM: 500 nM
Method: as §1

TGFBR1 (ALK5) = molecular target: T3, TGFBR1 (ALK5) (Homo sapiens, UniProt P36897); conditions: read-out: Percent inhibition of kinase activity in vitro, TGFBR1 (ALK5); for inhibition at 0.1 µM: 100 nM; for inhibition at 0.5 µM: 500 nM
T3 sequence (P36897 34-503): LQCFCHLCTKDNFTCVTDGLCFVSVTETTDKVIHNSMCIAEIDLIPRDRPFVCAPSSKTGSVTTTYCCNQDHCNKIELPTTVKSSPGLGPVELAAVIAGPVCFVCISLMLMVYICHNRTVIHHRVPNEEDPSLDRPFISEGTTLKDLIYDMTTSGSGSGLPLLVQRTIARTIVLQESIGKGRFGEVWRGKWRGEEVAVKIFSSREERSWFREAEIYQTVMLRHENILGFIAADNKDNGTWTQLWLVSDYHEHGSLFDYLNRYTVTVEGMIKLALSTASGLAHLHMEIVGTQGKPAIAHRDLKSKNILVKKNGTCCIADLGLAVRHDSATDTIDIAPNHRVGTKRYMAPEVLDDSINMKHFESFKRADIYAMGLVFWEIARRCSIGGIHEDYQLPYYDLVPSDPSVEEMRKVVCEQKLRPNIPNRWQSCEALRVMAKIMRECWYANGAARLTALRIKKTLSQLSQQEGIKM
Method: as §1

[1] = read-out: Percent inhibition of kinase activity in vitro, AURKA (Aurora A)

Sequence of FGFR1 (P11362 22-822): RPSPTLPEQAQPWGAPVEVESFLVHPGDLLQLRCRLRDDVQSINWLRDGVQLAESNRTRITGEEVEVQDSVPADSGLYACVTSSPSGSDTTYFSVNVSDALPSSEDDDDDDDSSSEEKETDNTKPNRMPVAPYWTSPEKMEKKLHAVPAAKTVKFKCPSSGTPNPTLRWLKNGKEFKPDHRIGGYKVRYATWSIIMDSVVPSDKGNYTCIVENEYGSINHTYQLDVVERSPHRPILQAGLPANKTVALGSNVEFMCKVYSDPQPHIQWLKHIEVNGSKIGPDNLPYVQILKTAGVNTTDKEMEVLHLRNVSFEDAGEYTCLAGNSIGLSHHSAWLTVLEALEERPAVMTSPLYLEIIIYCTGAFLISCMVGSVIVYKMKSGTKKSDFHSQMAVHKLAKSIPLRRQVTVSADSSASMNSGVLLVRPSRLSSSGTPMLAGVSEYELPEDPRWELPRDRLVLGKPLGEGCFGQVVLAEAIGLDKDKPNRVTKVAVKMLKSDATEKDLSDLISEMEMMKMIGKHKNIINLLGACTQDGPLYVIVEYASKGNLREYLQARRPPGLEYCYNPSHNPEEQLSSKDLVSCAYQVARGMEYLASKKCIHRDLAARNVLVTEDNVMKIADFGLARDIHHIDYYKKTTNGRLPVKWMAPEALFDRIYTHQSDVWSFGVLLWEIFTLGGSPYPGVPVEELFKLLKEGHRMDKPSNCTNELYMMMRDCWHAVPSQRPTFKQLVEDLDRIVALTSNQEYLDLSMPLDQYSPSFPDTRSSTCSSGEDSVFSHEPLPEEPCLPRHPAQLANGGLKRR
Sequence of AURKB (Aurora B) (Q96GD4 whole entry): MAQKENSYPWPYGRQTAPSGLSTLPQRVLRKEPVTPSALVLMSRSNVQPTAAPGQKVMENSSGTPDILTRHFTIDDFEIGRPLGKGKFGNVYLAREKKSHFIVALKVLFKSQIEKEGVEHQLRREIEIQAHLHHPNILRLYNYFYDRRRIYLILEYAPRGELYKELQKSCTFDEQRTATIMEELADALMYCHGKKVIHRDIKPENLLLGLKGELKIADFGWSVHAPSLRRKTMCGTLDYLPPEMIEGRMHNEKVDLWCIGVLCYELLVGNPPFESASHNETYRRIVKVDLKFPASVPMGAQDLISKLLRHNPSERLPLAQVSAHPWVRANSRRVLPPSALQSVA
Sequence of JAK2 (O60674 whole entry): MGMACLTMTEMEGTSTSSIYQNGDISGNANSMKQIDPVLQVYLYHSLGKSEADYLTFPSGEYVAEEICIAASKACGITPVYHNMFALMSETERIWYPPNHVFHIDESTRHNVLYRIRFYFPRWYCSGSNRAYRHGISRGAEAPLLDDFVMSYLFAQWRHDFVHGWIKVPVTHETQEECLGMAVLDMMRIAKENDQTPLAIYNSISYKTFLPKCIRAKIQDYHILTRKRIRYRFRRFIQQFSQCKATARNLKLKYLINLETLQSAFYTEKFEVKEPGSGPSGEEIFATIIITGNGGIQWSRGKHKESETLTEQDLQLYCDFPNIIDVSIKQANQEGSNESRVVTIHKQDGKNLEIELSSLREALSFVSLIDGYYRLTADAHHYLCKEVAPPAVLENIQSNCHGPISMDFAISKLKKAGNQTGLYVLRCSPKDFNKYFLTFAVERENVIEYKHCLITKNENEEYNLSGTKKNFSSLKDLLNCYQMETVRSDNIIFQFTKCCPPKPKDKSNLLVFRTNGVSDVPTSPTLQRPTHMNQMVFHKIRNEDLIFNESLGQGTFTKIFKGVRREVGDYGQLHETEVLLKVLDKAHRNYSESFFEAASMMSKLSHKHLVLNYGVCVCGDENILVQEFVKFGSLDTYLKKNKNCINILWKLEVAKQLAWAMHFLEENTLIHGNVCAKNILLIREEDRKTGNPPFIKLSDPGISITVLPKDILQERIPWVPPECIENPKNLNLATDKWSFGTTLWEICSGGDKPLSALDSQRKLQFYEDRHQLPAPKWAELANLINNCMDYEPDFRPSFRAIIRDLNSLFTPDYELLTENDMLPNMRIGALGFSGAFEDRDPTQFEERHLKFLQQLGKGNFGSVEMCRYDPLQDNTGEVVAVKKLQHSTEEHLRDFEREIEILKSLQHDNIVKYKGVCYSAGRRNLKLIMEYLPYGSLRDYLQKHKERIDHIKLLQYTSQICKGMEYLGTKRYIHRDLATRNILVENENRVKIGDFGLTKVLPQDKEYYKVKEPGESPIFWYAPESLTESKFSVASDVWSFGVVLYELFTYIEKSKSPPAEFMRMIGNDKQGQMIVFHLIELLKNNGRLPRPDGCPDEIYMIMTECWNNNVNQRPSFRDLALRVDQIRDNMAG
Sequence of LCK (P06239 whole entry): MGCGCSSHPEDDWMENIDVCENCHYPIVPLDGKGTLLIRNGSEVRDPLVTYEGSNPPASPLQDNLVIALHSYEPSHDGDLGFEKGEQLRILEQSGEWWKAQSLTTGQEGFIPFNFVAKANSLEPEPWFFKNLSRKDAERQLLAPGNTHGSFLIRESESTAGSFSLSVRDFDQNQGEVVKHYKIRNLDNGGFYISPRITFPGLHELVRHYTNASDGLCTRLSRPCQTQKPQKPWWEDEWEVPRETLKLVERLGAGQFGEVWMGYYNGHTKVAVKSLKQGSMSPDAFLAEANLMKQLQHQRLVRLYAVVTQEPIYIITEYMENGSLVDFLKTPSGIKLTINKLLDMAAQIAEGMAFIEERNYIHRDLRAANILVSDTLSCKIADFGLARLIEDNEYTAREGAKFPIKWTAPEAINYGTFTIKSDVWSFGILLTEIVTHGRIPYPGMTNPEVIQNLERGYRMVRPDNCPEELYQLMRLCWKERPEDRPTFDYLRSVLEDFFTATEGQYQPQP
Sequence of PRKCQ (PKC theta) (Q04759 whole entry): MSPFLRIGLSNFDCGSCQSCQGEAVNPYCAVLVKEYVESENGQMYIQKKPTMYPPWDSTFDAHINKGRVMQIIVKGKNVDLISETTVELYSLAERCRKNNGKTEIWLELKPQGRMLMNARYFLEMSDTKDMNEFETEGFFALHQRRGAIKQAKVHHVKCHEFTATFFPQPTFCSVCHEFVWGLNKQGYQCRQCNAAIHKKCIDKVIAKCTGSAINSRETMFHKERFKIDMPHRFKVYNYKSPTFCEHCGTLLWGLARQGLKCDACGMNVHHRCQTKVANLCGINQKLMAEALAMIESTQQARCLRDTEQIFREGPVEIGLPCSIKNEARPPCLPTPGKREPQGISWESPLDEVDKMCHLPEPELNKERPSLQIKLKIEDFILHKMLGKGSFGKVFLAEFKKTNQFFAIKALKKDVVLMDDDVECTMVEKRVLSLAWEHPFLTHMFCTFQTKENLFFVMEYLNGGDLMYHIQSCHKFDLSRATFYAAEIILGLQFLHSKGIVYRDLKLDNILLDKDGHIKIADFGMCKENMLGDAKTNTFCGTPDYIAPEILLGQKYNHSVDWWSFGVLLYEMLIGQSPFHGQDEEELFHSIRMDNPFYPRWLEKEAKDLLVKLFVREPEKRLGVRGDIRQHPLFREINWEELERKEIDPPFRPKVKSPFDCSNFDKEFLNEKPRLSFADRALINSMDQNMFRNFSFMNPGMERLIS
Sequence of ERBB2 (HER2) (P04626 23-1255): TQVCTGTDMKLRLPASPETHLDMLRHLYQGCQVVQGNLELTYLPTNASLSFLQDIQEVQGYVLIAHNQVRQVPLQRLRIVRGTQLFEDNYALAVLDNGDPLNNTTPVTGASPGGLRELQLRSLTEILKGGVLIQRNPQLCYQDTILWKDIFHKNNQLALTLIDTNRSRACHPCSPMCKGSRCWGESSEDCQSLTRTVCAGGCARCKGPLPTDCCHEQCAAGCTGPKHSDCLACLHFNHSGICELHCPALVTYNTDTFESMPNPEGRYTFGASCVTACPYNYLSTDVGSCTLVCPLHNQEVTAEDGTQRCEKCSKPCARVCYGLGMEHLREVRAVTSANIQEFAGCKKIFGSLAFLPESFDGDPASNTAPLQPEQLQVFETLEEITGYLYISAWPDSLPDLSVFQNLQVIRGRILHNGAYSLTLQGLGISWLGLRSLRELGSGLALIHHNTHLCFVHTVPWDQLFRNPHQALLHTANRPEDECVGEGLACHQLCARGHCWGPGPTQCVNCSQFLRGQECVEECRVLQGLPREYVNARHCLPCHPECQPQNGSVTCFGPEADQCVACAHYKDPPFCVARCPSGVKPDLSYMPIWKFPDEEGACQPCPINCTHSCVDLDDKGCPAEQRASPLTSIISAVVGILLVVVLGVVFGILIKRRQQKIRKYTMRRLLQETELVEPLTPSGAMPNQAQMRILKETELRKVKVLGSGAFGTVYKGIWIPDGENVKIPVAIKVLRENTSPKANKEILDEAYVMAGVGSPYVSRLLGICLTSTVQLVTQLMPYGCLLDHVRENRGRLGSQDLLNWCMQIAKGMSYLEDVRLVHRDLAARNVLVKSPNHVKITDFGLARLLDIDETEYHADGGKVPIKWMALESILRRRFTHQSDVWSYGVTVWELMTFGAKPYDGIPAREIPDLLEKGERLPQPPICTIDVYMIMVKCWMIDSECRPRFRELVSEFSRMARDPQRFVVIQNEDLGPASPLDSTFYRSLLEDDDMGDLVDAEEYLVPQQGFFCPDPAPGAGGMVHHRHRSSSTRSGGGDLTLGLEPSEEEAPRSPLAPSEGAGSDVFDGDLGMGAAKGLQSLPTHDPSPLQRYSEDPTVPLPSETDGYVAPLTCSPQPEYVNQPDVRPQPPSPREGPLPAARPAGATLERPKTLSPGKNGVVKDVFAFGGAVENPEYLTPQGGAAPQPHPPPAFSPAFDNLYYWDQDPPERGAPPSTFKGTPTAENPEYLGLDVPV

| SMILES | inhibition at 0.1 µM (AURKA (Aurora A); [1]) [%] | inhibition at 0.5 µM (AURKA (Aurora A); [1]) [%] | inhibition at 0.1 µM (AURKB (Aurora B)) [%] | inhibition at 0.5 µM (AURKB (Aurora B)) [%] | inhibition at 0.1 µM (AURKC (Aurora C)) [%] | inhibition at 0.5 µM (AURKC (Aurora C)) [%] | inhibition at 0.1 µM (EGFR (ErbB1)) [%] | inhibition at 0.5 µM (EGFR (ErbB1)) [%] | inhibition at 0.5 µM (ERBB2 (HER2)) [%] | inhibition at 0.1 µM (FGFR1) [%] | inhibition at 0.5 µM (FGFR1) [%] | inhibition at 0.1 µM (FRAP1 (mTOR)) [%] | inhibition at 0.5 µM (FRAP1 (mTOR)) [%] | inhibition at 0.1 µM (JAK2) [%] | inhibition at 0.5 µM (JAK2) [%] | inhibition at 0.1 µM (LCK) [%] | inhibition at 0.5 µM (LCK) [%] | inhibition at 0.1 µM (PDGFRA (PDGFR alpha)) [%] | inhibition at 0.1 µM (SYK) [%] | inhibition at 0.1 µM (TGFBR1 (ALK5)) [%] | other results |
| --- | --- | --- | --- | --- | --- | --- | --- | --- | --- | --- | --- | --- | --- | --- | --- | --- | --- | --- | --- | --- | --- |
| O=c1c2ccccc2[se]n1-c1nc(NC2CCCCC2)c2nc[nH]c2n1 [Compound 1] | 89 | 94 | 12 | 25 | 2 | 10 | 1 | 0 | 0 | 0 | 2 | 1 | 2 | 10 | 10 | 7 | 14 | 0 | 6 | 0 | inhibition at 0.5 µM (PDGFRA (PDGFR alpha)): 3%; inhibition at 0.05 µM (PRKCD (PKC delta)): 0%; inhibition at 0.05 µM (PRKCQ (PKC theta)): 62%; inhibition at 0.5 µM (SYK): 8%; inhibition at 0.5 µM (TGFBR1 (ALK5)): 0% |
| O=c1c2ccccc2[se]n1-c1nc(NC2CC[Se]C2)c2nc[nH]c2n1 (centres unmarked) [Compound 2] | 93 | 97 | 19 | 13 | 0 | 11 | – | 0 | 0 | – | 0 | – | 5 | 15 | 13 | 10 | 14 | – | 2 | 0 | inhibition at 0.5 µM (PDGFRA (PDGFR alpha)): 4%; inhibition at 0.5 µM (SYK): 9%; inhibition at 0.5 µM (TGFBR1 (ALK5)): 0% |
| C[C@@H]1C(Nc2nc(-n3[se]c4ccccc4c3=O)nc3[nH]cnc23)C[C@H]2C[C@@H]1C2(C)C (some centres unmarked) [Compound 3] | 78 | 99 | 24 | 19 | 0 | 7 | – | 0 | 2 | – | 13 | – | 1 | 13 | 11 | 0 | 16 | – | 0 | 3 | inhibition at 0.5 µM (PDGFRA (PDGFR alpha)): 5%; inhibition at 0.5 µM (SYK): 24%; inhibition at 0.5 µM (TGFBR1 (ALK5)): 0% |
| O=c1c2ccccc2[se]n1-c1nc(N[C@H]2CC[Se]C2)c2nc[nH]c2n1 [Compound 4] | 95 | – | 14 | – | 0 | – | 0 | – | – | 0 | – | 8 | – | 18 | – | 8 | – | 1 | 6 | 0 | inhibition at 0.01 µM (AURKA (Aurora A); 10 nM, read-out: Percent inhibition of kinase activity in vitro, AURKA (Aurora A)): 55%; inhibition at 0.05 µM (AURKA (Aurora A); 50 nM, read-out: Percent inhibition of kinase activity in vitro, AURKA (Aurora A)): 87%; IC50 (AURKA (Aurora A); from inhibition levels at 500, 100, 50 and 10 nM): 3.8 nM; inhibition at 0.05 µM (PRKCD (PKC delta)): 0%; inhibition at 0.05 µM (PRKCQ (PKC theta)): 98% |
| O=C1c2ccccc2CN1c1nc(NC2CCCCC2)c2nc[nH]c2n1 [SLLN-6C, reference compound] | 4 | – | 10 | – | 0 | – | 4 | – | – | 0 | – | 0 | – | 7 | – | 8 | – | 0 | 2 | 0 | inhibition at 0.05 µM (PRKCD (PKC delta)): 0%; inhibition at 0.05 µM (PRKCQ (PKC theta)): 0% |
